We go through 27 compounds from patent publication US20150259331A1, “PROTOZOAN PARASITE GROWTH INHIBITORS” (Northeastern University, priority 2014, published 2015).

Experiment [1] relates to T. brucei brucei Lister 427. The experiment is described as follows: Trypanosome replication assay. To be noted: 48 h, values ±7%. It counts as cell-based, Trypanosoma brucei brucei. As for the experimental part: Then 2 μL of DMSO (control) or different concentrations of drugs prepared from 200× DMSO stocks were added to the cultures. Cells were incubated at 37° C. for 48 h and counted with a hemocytometer. […] All experiments were repeated thrice in independent studies where each dose was administered in duplicate (total n=6). HepG2 Cell Toxicity Assay. The 384 well MTT cytotoxicity assay is a modification of the MTT method described by Ferrari et al. optimized for 384-well throughput, with modifications described below.

The next experiment concerns T. cruzi. The experiment is described as follows: T. cruzi growth inhibition. It counts as cell-based, Trypanosoma cruzi.
The subject of another experiment is L. major promastigote. The experiment is described as follows: L. major promastigote assay. It counts as cell-based.
Another experiment deals with L. major amastigote. The experiment is described as follows: L. major amastigote assay. Type of experiment: cell-based.
The subject of a further experiment is P. falciparum D6. As to the kind of experiment: P. falciparum D6 assay. It counts as cell-based. To be noted: strain D6.
The test system of a further experiment is P. falciparum W2. As to the kind of experiment: P. falciparum W2 assay. Type of experiment: cell-based. The settings on record: strain W2, read-out: P. falciparum W2 (EC50).
A further experiment relates to P. falciparum C235. As to the kind of experiment: P. falciparum C235 assay. Type of experiment: cell-based. The settings on record: strain C235, read-out: P. falciparum C235 (EC50).
Where [2] appears, read: concentration giving 50% inhibition of growth of T brucei brucei Lister 427 cells, read-out: Tbb EC50.
Setting [3] is: Trypanosoma brucei, concentration giving 50% inhibition of growth of T brucei brucei Lister 427 cells, read-out: Tbb EC50.

Structures are written as SMILES. Where two headings read alike, the source gives them in different places. Marks after values point to notes of the source that are not given here.

`CN1CCN(S(=O)(=O)c2ccc(-c3ccc4ncnc(Nc5ccc(OCc6ccccc6)c(Cl)c5)c4c3)cc2)CC1` [NEU-764]: the EC50 in experiment [1] (setting [2]) was 0.61 µM; with T. cruzi, 3.9 µM; in the experiment on L. major promastigote it was 3.4 µM; with L. major amastigote it was 2.2 µM; in the experiment with P. falciparum D6, 0.029 µM; with P. falciparum W2, 0.051 µM. Also, the EC50 with P. falciparum C235 amounted to 0.028 µM.

For `Fc1cccc(COc2ccc(Nc3ncnc4ccc(-c5cccc(-n6cccn6)c5)cc34)cc2Cl)c1` [NEU-709], the EC50 is 7.5 µM in experiment [1] (setting [2]); above 15 µM in the experiment with L. major promastigote; above 15 µM with L. major amastigote; 19 µM in the experiment on P. falciparum D6; 19 µM with P. falciparum W2; 19 µM with P. falciparum C235. Besides, the “T. cruzi % inh at 10 μM” value in the experiment with T. cruzi is “(10)* %”.

Take `CCNC(=O)c1ccc(-c2ccc3ncnc(Nc4ccc(OCc5cccc(F)c5)c(Cl)c4)c3c2)cc1F` [Compound 10c, 4-(4-4-((3-Chloro-4-((3-fluorobenzyl)oxy)phenyl)amino)-quinazolin-6-yl)-N-ethyl-2-fluorobenzamide]: in experiment [1] (setting [2]), the EC50 was found to be 3.85 µM.

Turning to `Cc1nnc(-c2cccc(-c3ccc4ncnc(Nc5ccc(OCc6cccc(F)c6)c(Cl)c5)c4c3)c2)o1` [Compound 10d, N-(3-Chloro-4-((3-fluorobenzyl)oxy)phenyl)-6-(3-(5-methyl-1,3,4-oxadiazol-2-1)phenyl)quinazolin-4-amine], in experiment [1] (setting [2]), the EC50 stood at 4.21 µM.

In the case of `COc1ccc(Nc2ncnc3ccc(-c4ccc(S(=O)(=O)N5CCN(C)CC5)cc4)cc23)cc1Cl` [NEU-766], the EC50 was 0.78 µM in experiment [1] (setting [2]); above 50 µM with T. cruzi; 5.9 µM in the experiment on L. major promastigote; above 15 µM in the experiment with L. major amastigote; 0.033 µM in the experiment on P. falciparum D6; 0.21 µM in the experiment with P. falciparum W2. In the experiment on P. falciparum C235, the EC50 stood at 0.058 µM.

Regarding `Fc1cccc(COc2ccc(Nc3ncnc4ccc(-c5cccc6ncccc56)cc34)cc2Cl)c1` [Compound 10f, N-(3-Chloro-4-((3-fluorobenzyl)oxy)phenyl)-6-(quinolin-5-yl)quinazolin-4-amine], the EC50 in experiment [1] (setting [3]) is 4.53 µM.

`CN1CCN(S(=O)(=O)c2ccc(-c3ccc4ncnc(Nc5ccc(F)cc5)c4c3)cc2)CC1` [NEU-768]: the EC50 is 2 µM in experiment [1] (setting [2]); above 50 µM with T. cruzi; 12 µM in the experiment with L. major promastigote; above 15 µM in the experiment on L. major amastigote; 0.36 µM with P. falciparum D6; 0.78 µM with P. falciparum W2. For the same compound, the EC50 in the experiment on P. falciparum C235 amounted to 0.38 µM.

`CN1CCN(S(=O)(=O)c2ccc(-c3ccc4ncnc(Nc5ccc(Cl)cc5)c4c3)cc2)CC1` [NEU-769]: the EC50 in experiment [1] (setting [2]) is 2.4 µM; with T. cruzi, 21 µM; in the experiment with L. major promastigote, 4.6 µM; in the experiment on L. major amastigote, above 15 µM; with P. falciparum D6, 0.11 µM; in the experiment with P. falciparum W2 it was 0.39 µM. Further, the EC50 in the experiment on P. falciparum C235 was 0.17 µM.

With `CC(C)(C)OC(=O)N1CCN(c2ccc(-c3ccc4ncnc(Nc5ccc(OCc6cccc(F)c6)c(Cl)c5)c4c3)cc2)CC1` [NEU-634], the EC50 in experiment [1] (setting [2]) was 6 µM; in the experiment with L. major promastigote it was 3.1 µM; in the experiment with L. major amastigote, 3.1 µM; with P. falciparum D6, 0.86 µM; in the experiment with P. falciparum W2, 3.2 µM; in the experiment on P. falciparum C235, 1.1 µM. Also, the “T. cruzi % inh at 10 μM” value in the experiment on T. cruzi is “(8)* %”.

Take `CCCS(=O)(=O)CCNCc1ccc(-c2ccc3ncnc(Nc4ccc(OCc5cccc(F)c5)c(Cl)c4)c3c2)o1` [Compound 3, reference compound]: in experiment [1] (setting [2]), the EC50 stood at 0.43 µM.

Consider `Cc1ccc(-c2ccc3ncnc(Nc4ccc(OCc5cccc(F)c5)c(Cl)c4)c3c2)c2ccccc12` [Compound 10b, N-(3-Chloro-4-((3-fluorobenzyl)oxy)phenyl)-6-(4-methylnaphthalen-1-yl)quinazolin-4-amine], for which the EC50 in experiment [1] (setting [3]) came out at 2.27 µM.

In the case of `O=C(c1ccc(-c2ccc3ncnc(Nc4ccc(OCc5cccc(F)c5)c(Cl)c4)c3c2)cc1)N1CCOCC1` [Compound 23f, (4-(4-((3-Chloro-4-((3-fluorobenzyl)oxy)phenyl)amino)-quinazolin-6-yl)phenyl)(morpholino)methanone], the EC50 in experiment [1] (setting [3]) came out at 1.21 µM; in experiment [1] (concentration giving 50% inhibition of growth of T brucei brucei Lister 427 cells, listed as NEU-783, read-out: Tbb EC50), 1.2 µM; with T. cruzi (Trypanosoma cruzi), 2.8 µM; in the experiment with L. major promastigote (Leishmania major), 0.85 µM; in the experiment on L. major amastigote (Leishmania major), 1.4 µM; in the experiment with P. falciparum D6 (Plasmodium falciparum), 0.4 µM. Besides, the EC50 amounted to 0.86 µM with P. falciparum W2 (Plasmodium falciparum) and 0.61 µM in the experiment with P. falciparum C235 (Plasmodium falciparum).

With `CN1CCN(S(=O)(=O)c2cccc(-c3ccc4ncnc(Nc5ccc(OCc6cccc(F)c6)c(Cl)c5)c4c3)c2)CC1` [NEU-770], the EC50 in experiment [1] (setting [2]) was 3.3 µM; with T. cruzi, 1.4 µM; in the experiment on L. major promastigote, above 15 µM; in the experiment on L. major amastigote it was 1.2 µM; in the experiment with P. falciparum D6 it was 0.038 µM; in the experiment on P. falciparum W2 it was 0.084 µM. Also, the EC50 in the experiment with P. falciparum C235 is 0.033 µM.

Take `O=C(c1cccc(-c2ccc3ncnc(Nc4ccc(OCc5cccc(F)c5)c(Cl)c4)c3c2)c1)N1CCCC1` [NEU-618]: the EC50 in experiment [1] (setting [2]) is 0.52 µM; in the experiment with L. major promastigote, above 15 µM; in the experiment with L. major amastigote it was above 15 µM; with P. falciparum D6 it was 0.069 µM; with P. falciparum W2 it was 0.09 µM; in the experiment on P. falciparum C235, 0.09 µM. In addition, the “T. cruzi % inh at 10 μM” value with T. cruzi is on record as “(7)* %”.

`O=C(c1ccc(-c2ccc3ncnc(Nc4ccc(OCc5cccc(F)c5)c(Cl)c4)c3c2)cc1)N1CCCCC1` [Compound 23l, (4-(4-((3-Chloro-4-((3-fluorobenzyl)oxy)phenyl)amino)-quinazolin-6-yl)phenyl)(piperidin-1-yl)methanone]: the EC50 was 0.94 µM in experiment [1] (setting [3]); above 50 µM with T. cruzi (Trypanosoma cruzi); 1 µM with L. major promastigote (Leishmania major); 2.9 µM in the experiment with L. major amastigote (Leishmania major); 0.25 µM in the experiment with P. falciparum D6 (Plasmodium falciparum); 0.88 µM with P. falciparum W2 (Plasmodium falciparum). For the same compound, in the experiment with P. falciparum C235 (Plasmodium falciparum), the EC50 is 0.36 µM.

For the compound `Cc1cc(-c2ccc3ncnc(Nc4ccc(OCc5cccc(F)c5)c(Cl)c4)c3c2)cnc1N1CCOCC1` [NEU-632], the EC50 in experiment [1] (setting [2]) amounted to 1 µM; in the experiment on L. major promastigote, 3.6 µM; in the experiment on L. major amastigote it was 1.1 µM; in the experiment on P. falciparum D6 it was 0.26 µM; in the experiment with P. falciparum W2 it was 0.54 µM; in the experiment with P. falciparum C235, 0.36 µM. In addition, the “T. cruzi % inh at 10 μM” value with T. cruzi is given as 49%.

Consider `Fc1cccc(COc2ccc(Nc3ncnc4ccc(-c5ccccc5Oc5ccccc5)cc34)cc2Cl)c1` [Compound 10g, N-(3-Chloro-4-((3-fluorobenzyl)oxy)phenyl)-6-(2-phenoxyphenyl)quinazolin-4-amine], for which the EC50 in experiment [1] (setting [3]) stood at 5.3 µM.

For `Fc1cccc(COc2ccc(Nc3ncnc4ccc(-c5cccc(N6CCNCC6)c5)cc34)cc2Cl)c1` [NEU-711], the EC50 worked out at 0.25 µM in experiment [1] (setting [2]) and 2.2 µM in the experiment with T. cruzi.

For the compound `O=C(NC1CC1)c1cccc(-c2ccc3ncnc(Nc4ccc(OCc5cccc(F)c5)c(Cl)c4)c3c2)c1` [Compound 10e, 3-(4-((3-Chloro-4-((3-fluorobenzyl)oxy)phenyl)amino)-quinazolin-6-yl)-N-cyclopropylbenzamide], the EC50 in experiment [1] (setting [3]) amounted to 4.5 µM.

Turning to `Fc1cccc(COc2ccc(Nc3ncnc4ccc(-c5cc6ccccc6s5)cc34)cc2Cl)c1` [Compound 10h, 6-(Benzo[b]thiopen-2-yl)-N-(3-chloro-4-((3-fluorobenzyl)-oxy)phenyl)quinazolin-4-amine], in experiment [1] (setting [2]), the EC50 amounted to 5.98 µM.

Take `CC(C)S(=O)(=O)CCNCc1ccc(-c2ccc3ncnc(Nc4ccc(OCc5cccc(F)c5)c(Cl)c4)c3c2)o1` [Compound 4, reference compound]: the EC50 in experiment [1] (setting [2]) was found to be 0.48 µM.

Turning to `CC(C)(C)NS(=O)(=O)c1ccccc1-c1ccc2ncnc(Nc3ccc(OCc4cccc(F)c4)c(Cl)c3)c2c1` [Compound 10w, N-(tert-Butyl)-2-(4-((3-chloro-4-((3-fluorobenzyl)oxy)-phenyl)amino)quinazolin-6-yl)benzenesulfonamide], the EC50 in experiment [1] (setting [3]) came out at 4.66 µM; in experiment [1] (concentration giving 50% inhibition of growth of T brucei brucei Lister 427 cells, listed as NEU-620, read-out: Tbb EC50), 4.7 µM; with T. cruzi (Trypanosoma cruzi) it was 6.4 µM.

With `Cl.O=S(=O)(c1ccc(-c2ccc3ncnc(Nc4ccc(OCc5ccccc5F)c(Cl)c4)c3c2)cc1)N1CCOCC1` [Compound 20i], the “T. cruzi % inh at 10 μM” value with T. cruzi worked out at 10%.

On to `CS(=O)(=O)CCN(Cc1ccccc1)Cc1ccc(-c2ccc3ncnc(Nc4ccc(OCc5cccc(F)c5)c(Cl)c4)c3c2)o1` [Compound 9, reference compound], for which the EC50 in experiment [1] (setting [2]) is 1.51 µM.

`O=c1[nH]cc(-c2ccc3ncnc(Nc4ccc(OCc5cccc(F)c5)c(Cl)c4)c3c2)c(=O)[nH]1` [Compound 10j]: in experiment [1] (setting [2]), the EC50 came to 22.6 µM.

For the compound `CS(=O)(=O)CCNCc1ccc(-c2ccc3ncnc(Nc4ccc(OCc5ccccc5)c(Br)c4)c3c2)o1` [Compound 7, reference compound], in experiment [1] (setting [2]), the EC50 was 0.56 µM.

As to `Oc1ccc(-c2ccc3ncnc(Nc4ccc(OCc5cccc(F)c5)c(Cl)c4)c3c2)cc1` [Compound 10i, 4-(4-((3-Chloro-4-((3-fluorobenzyl)oxy)phenyl)amino)-quinazolin-6-yl)phenol], the EC50 in experiment [1] (Trypanosoma brucei, read-out: Tbb EC50, concentration giving 50% inhibition of growth of T brucei brucei Lister 427 cells) came out at 6.45 µM.
